Data on one compound can be found in US10806746B2, “Di- and tri-cationic glycosylated antitumor ether lipids, L-gucosylated gaels and rhamnose-linked gaels as cytotoxic agents against epithelial cancer cells and cancer stem cells” (The University of Manitoba, priority 2014, dated 2020).

Common to all, as to format: cell-based, human
Data set [1] deals with MDA-MB-231 cells. Briefly: MTS viability assay, MDA-MB-231 breast cancer cells. The settings on record: Table 6, 48 h. The procedure:
FIG. 2A. Effects of compounds 1-11 on the viability of MDA-MB231 cells. MDA-MB-231 cells were cultured in DMEM medium supplemented with 10% FBS. Equal numbers were dispersed into 96-well plates. After 24 h, the cells were incubated with compounds 1-11 (0-30 μM) for 48 h. At the end of the incubation, MTS reagent (20% vol/vol) was added and the plates were incubated for 1-4 h. The OD490 was read with a plate reader. Wells with media but no cells were treated in similar fashion and the values utilized as blank. The results represent the mean±standard deviation of 6 independent determinations.
(§1) FIG. 2K. Effects of compounds 1, 69-72 on the viability of MDA-MB-231 cells. MDA-MB-231 cells were cultured in DMEM medium supplemented with 10% FBS. Equal numbers were dispersed into 96-well plates. After 24 h, the cells were incubated with compounds 1, 69-72 for 48 h. At the end of the incubation, MTS reagent (20% vol/vol) was added and the plates were incubated for 1-4 h. The OD490 was read with a plate reader. Wells with media but no cells were treated in similar fashion and the values utilized as blank. The results represent the mean±standard deviation of 6 independent determinations.
(§2) The cell lines were cultured from frozen stocks originally obtained from ATCC. MDA-MB-231, JIMT-1, DU145, U81, U251 cells were grown in DMEM medium. BT474, A2780s, A2780cp cells were grown in DMEM/F12 medium supplemented with 10% FBS. MiaPaCa2 was cultured in DMEM supplemented with 10% FBS and 2.5% horse serum. PC3 cells were cultured in F12K medium supplemented with 10% FBS. All the media were supplemented with penicillin/streptomycin.
(§3) The effects of the GAELs on the viability of the various epithelial cancer cell lines was determined as previously described. Briefly, equal numbers of the cells were dispersed into 96-well plates. After 24 h, the cells were incubated with the compounds (0-30 μM) for 48 h. At the end of the incubation, MTS reagent (20% vol/vol) was added and the plates were incubated for 1-4 h. The OD490 was read with a plate reader. Wells with media but no cells were treated in similar fashion and the values utilized as blank. The results represent the mean±standard deviation of 6 independent determinations.

In data set [2] the test system is DU145 cells. Briefly: MTS viability assay, DU145 prostate cancer cells. The settings on record: Table 6, 48 h. The procedure: (§4) FIG. 2D. Effects of compounds 1-11 on the viability of DU145 cells. DU145 cells were cultured in DMEM medium supplemented with 10% FBS. Equal numbers were dispersed into 96-well plates. After 24 h, the cells were incubated with compounds 1-11 (0-30 μM) for 48 h. At the end of the incubation, MTS reagent (20% vol/vol) was added and the plates were incubated for 1-4 h. The OD490 was read with a plate reader. Wells with media but no cells were treated in similar fashion and the values utilized as blank. The results represent the mean±standard deviation of 6 independent determinations.
FIG. 2H. Effect of compounds 1, 69-72 on the viability of DU145 cells. DU145 cells were cultured in DMEM medium supplemented with 10% FBS. Equal numbers were dispersed into 96-well plates. After 24 h, the cells were incubated with compounds 1, 69-72 for 48 h. At the end of the incubation, MTS reagent (20% vol/vol) was added and the plates were incubated for 1-4 h. The OD490 was read with a plate reader. Wells with media but no cells were treated in similar fashion and the values utilized as blank. The results represent the mean±standard deviation of 6 independent determinations.
as §2, §3

Data set [3] concerns JIMT-1 cells. Briefly: MTS viability assay, JIMT-1 breast cancer cells. The conditions noted are these: Table 6, 48 h. The procedure:
FIG. 2B. Effects of compounds 1-11 on the viability of JIMT-1 cells. JIMT-1 cells were cultured in DMEM medium supplemented with 10% FBS. Equal numbers were dispersed into 96-well plates. After 24 h, the cells were incubated with compounds 1-11 (0-30 μM) for 48 h. At the end of the incubation, MTS reagent (20% vol/vol) was added and the plates were incubated for 1-4 h. The OD490 was read with a plate reader. Wells with media but no cells were treated in similar fashion and the values utilized as blank. The results represent the mean±standard deviation of 6 independent determinations.
FIG. 2J. Effects of compounds 1, 69-72 on the viability of JIMT-1 cells. JIMT-1 cells were cultured in DMEM medium supplemented with 10% FBS. Equal numbers were dispersed into 96-well plates. After 24 h, the cells were incubated with compounds 1, 69-72 for 48 h. At the end of the incubation, MTS reagent (20% vol/vol) was added and the plates were incubated for 1-4 h. The OD490 was read with a plate reader. Wells with media but no cells were treated in similar fashion and the values utilized as blank. The results represent the mean±standard deviation of 6 independent determinations.
as §2, §3

The test system of data set [4] is MiaPaCa2 cells. Briefly: MTS viability assay, MiaPaCa2 pancreas cancer cells. The conditions noted are these: Table 6, 48 h. The procedure:
as §4, with “2F.” for “2D.”, “MiaPaCa2” for “DU145”, “FBS and 2.5% horse serum.” for “FBS.”
as §1, with “2I.” for “2K.”, “MiaPaCa2” for “MDA-MB-231”, “FBS and 2.5% horse serum.” for “FBS.”
as §2, §3

The subject of data set [5] is PC3 cells. Briefly: MTS viability assay, PC3 prostate cancer cells. The settings on record: Table 6, 48 h, MTS. The method, then:
FIG. 2E. Effects of compounds 1-11 on the viability of PC3 cells. PC3 cells were cultured in F12K medium supplemented with 10% FBS. Equal numbers were dispersed into 96-well plates. After 24 h, the cells were incubated with compounds 1-11 (0-30 μM) for 48 h. At the end of the incubation, MTS reagent (20% vol/vol) was added and the plates were incubated for 1-4 h. The OD490 was read with a plate reader. Wells with media but no cells were treated in similar fashion and the values utilized as blank. The results represent the mean±standard deviation of 6 independent determinations.
as §2, §3

For data set [6], the system named is BT-474 cells. Briefly: MTS viability assay, BT-474 breast cancer cells. The settings on record: Table 6, 48 h, MTS. The method, then:
FIG. 2C. Effects of compounds 1-11 on the viability of BT-474 cells. BT-474 cells were cultured in DMEM/F12 medium supplemented with 10% FBS. Equal numbers were dispersed into 96-well plates. After 24 h, the cells were incubated with compounds 1-11 (0-30 μM) for 48 h. At the end of the incubation, MTS reagent (20% vol/vol) was added and the plates were incubated for 1-4 h. The OD490 was read with a plate reader. Wells with media but no cells were treated in similar fashion and the values utilized as blank. The results represent the mean±standard deviation of 6 independent determinations.
as §2, §3

Data set [7] concerns BT-474, JIMT-1, MDA-MB-231 (breast), DU145, PC3 (prostate), MiaPaCa2 (pancreas). Briefly: MTS viability, panel of epithelial cancer cell lines (ranges over the cell lines). The settings on record: tricationic GAELs, FIG. 2O, Table 6. The method, then:
To determine the effect of compounds 1-10 on the viability of the epithelial cancer cell lines, exponentially growing cells, BT-474, JIMT-1, MDA-MB-231 (breast), DU145, PC3 (prostate), MiaPaCa2 (pancreas) were incubated with varying concentrations of 1-8 (0-30 μM) for 48 h followed by viability assays with the MTS reagent.
as §3

For `CCCCCCCCCCCCCCCCOC[C@H](COC1O[C@H](CN)[C@@H](O)[C@H](O)[C@H]1NCCCCCCCCCCCCN)OC` (stereo partly shown) [Compound 75, 1-O-Hexadecyl-2-O-methyl-3-O-[2′-N-(12-aminododecyl)-2′,6′-diamino-2′,6′-dideoxy-glucopyranoside]-sn-glycerol], the CC50 in data set [1] (read-out: MB-MDA-231 CC50) worked out at 5.5 µM; in data set [2] (read-out: DU145 CC50), 7.5 µM; in data set [3] (read-out: JIMT1 CC50) it was 8 µM; in data set [4] (read-out: MiaPaCa2 CC50) it was 8.5 µM; in data set [5] (read-out: PC3 CC50), 8.5 µM; in data set [6] (read-out: BT474 CC50), 13.5 µM. In addition, the CC90 in data set [1] (read-out: MB-MDA-231 CC90) turned out to be 9.5 µM; in data set [2] (read-out: DU145 CC90) it was 9.5 µM; in data set [3] (read-out: JIMT1 CC90), 9.5 µM; in data set [4] (read-out: MiaPaCa2 CC90), 12 µM; in data set [5] (read-out: PC3 CC90), 11.5 µM; in data set [6] (read-out: BT474 CC90) it was 16.5 µM. For the same compound, the “cytotoxicity against all cell lines examined” value in data set [7] is “cytotoxic”.
